Test results from patent publication US9187467B2, “2-phenyl benzothiazole linked imidazole compounds as potential anticancer agents and process for the preparation thereof” (Council of Scientific and Industrial Research, priority 2012, dated 2015).
Read-outs that look alike come from different tables or passages of the source.

Assays:
U251 = test: SRB anticancer assay, CNS; format: cell-based, human; design: Log10GI50: unit not given here
OVCAR-5 = test: SRB anticancer assay, ovarian; format: cell-based, human; details: Homo sapiens, OVCAR-5, 48 h
UACC-257 = test: SRB anticancer assay, melanoma; format: cell-based, human
SF-295 = test: SRB anticancer assay, CNS; format: cell-based, human; design: Log10GI50: unit not given here
NCI-H322M = test: SRB anticancer assay, non-small lung; format: cell-based, human; details: Homo sapiens, 48 h
MALME-3M = test: SRB anticancer assay, melanoma; format: cell-based, human; design: Log10GI50: unit not given here
UO-31 = test: SRB anticancer assay, renal; format: cell-based, human; design: Log10GI50: unit not given here
NCI-H460 = test: SRB anticancer assay, non-small lung; format: cell-based, human; details: Homo sapiens, NCI-H460, 48 h
OVCAR-3 = test: SRB anticancer assay, ovarian; format: cell-based, human; design: Log10GI50: unit not given here
PC-3 = test: SRB anticancer assay, prostate; format: cell-based, human; design: Log10GI50: unit not given here
NCI-H226 = test: SRB anticancer assay, non-small lung; format: cell-based, human; details: Homo sapiens, NCI-H226, 48 h
LOX IMVI = test: SRB anticancer assay, melanoma; format: cell-based, human; design: Log10GI50: unit not given here
HL-60 (TB) = test: SRB anticancer assay, leukemia; format: cell-based, human; design: Log10GI50: unit not given here
786-0 = test: SRB anticancer assay, renal; format: cell-based, human
HS 578T = test: SRB anticancer assay, breast; format: cell-based, human; design: Log10GI50: unit not given here
BT-549 = test: SRB anticancer assay, breast; format: cell-based, human; design: Log10GI50: unit not given here
DU-145 = test: SRB anticancer assay, prostate; format: cell-based, human; design: Log10GI50: unit not given here
A549/ATCC = test: SRB anticancer assay, non-small lung; format: cell-based, human; design: Log10GI50: unit not given here
SR = test: SRB anticancer assay, leukemia; format: cell-based, human; details: Homo sapiens, 48 h
NCI-H522 = test: SRB anticancer assay, non-small lung; format: cell-based, human; design: Log10GI50: unit not given here
K-562 = test: SRB anticancer assay, leukemia; format: cell-based, human; design: Log10GI50: unit not given here
IGROV1 = test: SRB anticancer assay, ovarian; format: cell-based, human; details: Homo sapiens, IGROV-1; IGROV1, 48 h
KM12 = test: SRB anticancer assay, colon; format: cell-based, human; details: Homo sapiens, KM12, 48 h
NCI-H23 = test: SRB anticancer assay, non-small lung; format: cell-based, human
A498 = test: SRB anticancer assay, renal; format: cell-based, human; design: Log10GI50: unit not given here
HT29 = test: SRB anticancer assay, colon; format: cell-based, human; details: Homo sapiens, HT-29; HT29, 48 h
SK-MEL-5 = test: SRB anticancer assay, melanoma; format: cell-based, human; details: Homo sapiens, SK-MEL-5, 48 h
SK-OV-3 = test: SRB anticancer assay, ovarian; format: cell-based, human; details: Homo sapiens, SK-OV-3, 48 h
ACHN = test: SRB anticancer assay, renal; format: cell-based, human; design: Log10GI50: unit not given here
SF-539 = test: SRB anticancer assay, CNS; format: cell-based, human; design: Log10GI50: unit not given here
TK-10 = test: SRB anticancer assay, renal; format: cell-based, human; details: Homo sapiens, TK-10, 48 h
MDA-MB-231/ATCC = test: SRB anticancer assay, breast; format: cell-based, human; design: Log10GI50: unit not given here; details: for GI50: Homo sapiens, MDA-MB-231, 48 h, 48 h, read-out: GI50
SF-268 = test: SRB anticancer assay, CNS; format: cell-based, human; design: Log10GI50: unit not given here
UACC-62 = test: SRB anticancer assay, melanoma; format: cell-based, human
T-47D = test: SRB anticancer assay, breast; format: cell-based; details: Homo sapiens, T47D, 48 h
SK-MEL-28 = test: SRB anticancer assay, melanoma; format: cell-based, human; design: Log10GI50: unit not given here

Compound: COc1ccc(-c2cncn2-c2ccc(-c3nc4cc(OC)c(OC)c(OC)c4s3)cc2)cc1N [Compound 7j, 2-Methoxy-5-(1-(4-(5,6,7-trimethoxybenzo[d]thiazol-2-yl)phenyl)-1H-imidazol-5-yl)benzeneamine]
- GI50 (U251; Homo sapiens, U-251, U251, 48 h): 6 µM
- Log10GI50 (U251; U251, present compounds): −5.22
- GI50 (OVCAR-5): > 100 µM
- GI50 (UACC-257; Homo sapiens, UACC-257, 48 h): > 100 µM
- Log10GI50 (UACC-257; UACC-257, present compounds): >−4.0 log10(M)
- GI50 (SF-295; Homo sapiens, SF-295, 48 h): 4.44 µM
- Log10GI50 (SF-295; SF-295, present compounds): −5.35
- GI50 (NCI-H322M): 25.7 µM
- GI50 (MALME-3M; Homo sapiens, Malme-3M, 48 h): 2.48 µM
- Log10GI50 (MALME-3M; MALME-3M, present compounds): −5.61
- GI50 (UO-31; Homo sapiens, UO-31, 48 h): 1.99 µM
- Log10GI50 (UO-31; UO-31, present compounds): −5.70
- GI50 (NCI-H460): 4.69 µM
- GI50 (OVCAR-3; Homo sapiens, OVCAR-3, 48 h): 5.18 µM
- Log10GI50 (OVCAR-3; OVCAR-3, present compounds): −5.29
- GI50 (PC-3; Homo sapiens, PC-3, 48 h): 2.59 µM
- Log10GI50 (PC-3; PC-3, present compounds): −5.59
- GI50 (NCI-H226): 6.7 µM
- GI50 (LOX IMVI; Homo sapiens, 48 h): 4.75 µM
- Log10GI50 (LOX IMVI; present compounds): −5.32
- Log10GI50 (HL-60 (TB); HL-60(TB), present compounds): −5.66
- GI50 (HL-60 (TB); Homo sapiens, HL-60, 48 h): 2.2 µM
- Log10GI50 (786-0; 786-0, present compounds): −5.24 log10 M
- GI50 (786-0; Homo sapiens, 786-0, 48 h): 5.73 µM
- GI50 (HS 578T; Homo sapiens, 48 h): 6.21 µM
- Log10GI50 (HS 578T; present compounds): −4.55
- Log10GI50 (BT-549; BT-549, present compounds): −5.21
- GI50 (BT-549; Homo sapiens, BT-549, 48 h): 3.02 µM
- Log10GI50 (DU-145; DU-145, present compounds): −5.20
- GI50 (DU-145; Homo sapiens, DU-145, 48 h): 6.38 µM
- GI50 (A549/ATCC; Homo sapiens, 48 h): 5.77 µM
- Log10GI50 (A549/ATCC; present compounds): −5.24
- GI50 (SR): 3.43 µM
- GI50 (NCI-H522; Homo sapiens, NCI-H522, 48 h): 3.37 µM
- Log10GI50 (NCI-H522; NCI-H522, present compounds): −5.47
- GI50 (K-562; Homo sapiens, K562, K-562, 48 h): 3.38 µM
- Log10GI50 (K-562; K-562, present compounds): −5.47
- GI50 (IGROV1): 4.9 µM
- GI50 (KM12): 3.8 µM
- GI50 (NCI-H23; Homo sapiens, NCI-H23, 48 h): 4.76 µM
- Log10GI50 (NCI-H23; NCI-H23, present compounds): −5.32 log10(M)
- Log10GI50 (A498; A498, present compounds): −5.32
- GI50 (A498; Homo sapiens, A498, 48 h): 4.83 µM
- GI50 (HT29): 3.87 µM
- GI50 (SK-MEL-5): 1.73 µM
- GI50 (SK-OV-3): > 100 µM
- GI50 (ACHN; Homo sapiens, 48 h): 5.59 µM
- Log10GI50 (ACHN; present compounds): −5.25
- GI50 (SF-539; Homo sapiens, SF-539, 48 h): > 100 µM
- Log10GI50 (SF-539; SF-539, present compounds): >−4.0
- GI50 (TK-10): 4.16 µM
- GI50 (MDA-MB-231/ATCC; MDA-MB-231/ATCC (row head MDA-MB-)): > 100 µM
- GI50 (MDA-MB-231/ATCC; row head printed 231/ATCC (second line of MDA-MB-231/ATCC)): 28.3 µM
- Log10GI50 (MDA-MB-231/ATCC; MDA-MB-231/ATCC, present compounds): >−4.0
- GI50 (SF-268; Homo sapiens, SF-268, 48 h): 47 µM
- Log10GI50 (SF-268; SF-268, present compounds): −4.33
- GI50 (UACC-62; Homo sapiens, UACC-62, 48 h): > 100 µM
- Log10GI50 (UACC-62; UACC-62, present compounds): −5.04 log10 M
- GI50 (T-47D): 8.6 µM
- GI50 (SK-MEL-28; Homo sapiens, SK-MEL-28, 48 h): 13.7 µM
- Log10GI50 (SK-MEL-28; SK-MEL-28, present compounds): −4.86
